Measurements from patent US20240336609A1, “PYRIDAZINONE COMPOUNDS AND USES THEREOF” (Edgewise Therapeutics, Inc., priority 2021, published 2024).

Molecular target: T1, skeletal myofibrils (myosin ATPase activity) (Oryctolagus cuniculus, UniProt Q28641)
T1 construct: Rabbit Psoas Prep 11 (0.25 mg/mL)
Assay: Skeletal Myofibril ATPase Assay (PK/LDH-coupled, NADH absorbance at 340 nm)
Type: biochemical
Conditions: Rabbit Psoas myofibrils 0.25 mg/mL, ATP 0.05 mM, 1% DMSO vehicle = 100% activity
Method: Overview: Myosin ATPase activity was assessed by using a coupled reaction system, in which ADP generated by the myosin ATPase function was coupled to the disappearance of NADH through the pyruvate kinase/lactate dehydrogenase (PK-LDH) system. Myosin ATPase activity produces ADP, which was used as a substrate for PK to produce pyruvate and regenerate ATP. The pyruvate was then used as a substrate by LDH to oxidize NADH to NAD+. The rate of the reaction was monitored through the time-dependent disappearance of NADH using absorbance at 340 nm. Inhibition of ATPase activity by the assayed compounds was indicated by a reduced rate of NADH loss, relative to vehicle-treated controls, over the experimental time window. To assess the selectivity of the assayed compounds for skeletal myofibrils, the compounds were counter-screened in cardiac myofibrils.
Materials: The following stock solutions and reagents were used in the Skeletal Myofibril ATPase Assay:
Stock Solutions of pCa buffer. Combine PIPES, CaCl2), and EGTA solutions with 70 mL of water. Adjust pH to 7.0 and bring final volume to 100 mL.
Buffer A & Buffer B. Butters were stored on ice until use.
Skeletal Myofibril ATPase Assay Procedure: BSA, ATP, NADH, PEP, and DTT solutions were thawed at room temperature, then transferred to ice. Pellet-frozen myofibrils (approximately twice the required volume) were transferred into a sufficiently large tube and capped. Myofibrils were thawed by rolling in a water bath for approximately 15 min at room temperature and cooled on ice. Buffers A and B were prepared by adjusting volumes as necessary for required number of wells and stored on ice. 0.5 μL of the compounds to be assayed were added into wells of a 384-well plate. Buffers A and B were mixed by inversion immediately prior to use, then 25 μL of each was dispensed using a Multidrop dispenser (Buffer A first, then Buffer B). The absorbance within the wells was measured at 340 nm, using a kinetic protocol in which the wells are read every 1.5-2 min for 1 h. The reaction rate was qualitatively assessed by subtracting the minimum absorbance value from the maximum value for each well, using either the SoftMax Pro plate reader software or a spreadsheet program such as Excel. Using GraphPad Prism 8.0, the data was normalized, with 100% activity defined as the absorbance change in the 1% DMSO vehicle wells and 0% assigned to no change in absorbance over the course of the experiment. The normalized data were fit to a variable-slope four-parameter logistic model, constraining the bottom to be 0 or greater. Compounds of Table 1 to 3 were tested and results of the assay appear in Table 4 herein. A=IC50 is less than or equal to 10 μM; B=IC50 is greater than 10 μM and less than 100 μM; C=IC50 is greater than 100 μM.

Row | Compound | IC50 [µM]
1 | 6-(5-(5-chloropyridin-3-yl)- 1,2,4-thiadiazol-3-yl)-2-((3- methylisoxazol-5-yl)methyl)- pyridazin-3(2H)-one [Compound 28] | ≥ 100
2 | N-ethyl-2-(5-(5-morpholino- 1,2,4-thiadiazol-3-yl)-2-oxo- pyridin-1(2H)-yl)acetamide [Compound 11] | 10 to 100
3 | N-ethyl-2-(6-oxo-3-(5-(5- (trifluoromethyl)pyridin-3-yl)- 1,2,4-thiadiazol-3-yl)pyridazin- 1(6H)-yl)acetamide [Compound 19] | ≥ 100
4 | 6-(5-(3-chlorophenyl)-1,2,4- thiadiazol-3-yl)-2-((3-methyl- isoxazol-5-yl)methyl)pyridazin- 3(2H)-one [Compound 27] | ≤ 10
5 | 6-(3-(3-chlorophenyl)-1,2,4- thiadiazol-5-yl)-2-((3-(pyridin- 3-yl)-1,2,4-oxadiazol-5-yl)- methyl)pyridazin-3(2H)-one [Compound 22] | ≥ 100
6 | 2-(5-(5-(4-chloropyridin-2-yl)- 1,2,4-oxadiazol-3-yl)-2-oxopyri- din-1(2H)-yl)-N-ethylacetamide [Compound 51] | 10 to 100

Test system: embryos from zebrafish model of DMD
Assay: not given
Conditions: cited from earlier work

Row | Compound | protection of muscles from pathological muscle derangement
7 | Cc1ccc(S(=O)(=O)NCc2ccccc2)cc1 [N-benzyl-p-tolyl-sulfonamide (BTS), N-benzyl-p-tolyl-sulfonamide] | protect muscles from pathological muscle derangement
